According to ChEMBL document CHEMBL1667742, “Angiotensin II receptor type 1 (AT1) selective nonpeptidic antagonists--a perspective” (Bioorg Med Chem, 2010):
Numbering of substitutions follows the chain as printed. One block for each molecule: values may come before it.

Key:
Rattus norvegicus [1] = assay: Antihypertensive activity in conscious normotensive rat at 0.1 mg/kg after 6 hrs; format: functional
[2] = Displacement of radiolabeled angiotensin2 from angiotensin AT1 receptor in rat adrenal cortex membranes; format: cell membranes, Membrane
Rattus norvegicus [3] = assay: Antihypertensive activity in iv dosed renal artery ligated rat model assessed as reduction of means arterial blood pressure by 30 mm Hg; format: functional
[4] = target: T1, Type-1 angiotensin II receptor (Homo sapiens, UniProt P30556); assay: Binding affinity to angiotensin AT1 receptor
T1 sequence (P30556 whole entry): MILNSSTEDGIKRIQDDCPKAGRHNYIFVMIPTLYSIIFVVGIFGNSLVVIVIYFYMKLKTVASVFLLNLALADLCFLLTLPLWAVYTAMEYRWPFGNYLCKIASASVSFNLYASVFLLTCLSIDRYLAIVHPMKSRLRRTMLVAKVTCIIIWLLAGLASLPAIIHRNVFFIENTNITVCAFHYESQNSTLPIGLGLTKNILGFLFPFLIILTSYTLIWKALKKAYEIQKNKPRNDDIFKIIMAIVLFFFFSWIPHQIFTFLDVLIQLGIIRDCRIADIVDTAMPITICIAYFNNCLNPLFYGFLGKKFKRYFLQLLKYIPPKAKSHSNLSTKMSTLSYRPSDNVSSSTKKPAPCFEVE

[5] = Oral bioavailability in rat; format: ADME, organism-based; details: in vivo
Rhesus monkey = assay: Antihypertensive activity in rhesus monkey assessed as inhibition of angiotensin 2-induced pressor response at 10 mg/kg, po after 4 to 24 hrs; format: functional; details: Macaca mulatta
[6] = target: T1, Type-1 angiotensin II receptor; assay: Antagonist activity at angiotensin AT1 receptor in human PLC-PRF5 cells; format: functional, cell-based
[7] = target: T1, Type-1 angiotensin II receptor; assay: Displacement of [3H]-angiotensin 2 from angiotensin AT1 receptor in human PLC-PRF5 cells; format: cell-based
Rattus norvegicus [8] = organism: Rattus norvegicus; assay: Antihypertensive activity in spontaneous hypertensive rat model assessed as reduction of blood pressure; format: functional
Rattus norvegicus [9] = assay: Ratio of compound ED50 to losartan ED50 for po dosed renal hypertensive rat model; format: functional
[10] = target: T2, Type-1 angiotensin II receptor (Homo sapiens) (UniProt P30556); assay: Ratio of compound Ki to losartan Ki for angiotensin AT1 receptor
T2 sequence (whole entry): T1 sequence (P30556 whole entry)

[11] = target: T2, Type-1 angiotensin II receptor (Homo sapiens); assay: (§1) Antagonist activity at angiotensin AT1 receptor; format: functional
Rattus norvegicus [12] = assay: Antihypertensive activity in iv dosed conscious rat; format: functional
[13] = target: T3, Type-1 angiotensin II receptor (Cavia porcellus, UniProt Q9WV26); assay: Binding affinity to angiotensin AT1 receptor in guinea pig adrenal cortex membranes; format: cell membranes, Membrane
T3 sequence (Q9WV26 whole entry): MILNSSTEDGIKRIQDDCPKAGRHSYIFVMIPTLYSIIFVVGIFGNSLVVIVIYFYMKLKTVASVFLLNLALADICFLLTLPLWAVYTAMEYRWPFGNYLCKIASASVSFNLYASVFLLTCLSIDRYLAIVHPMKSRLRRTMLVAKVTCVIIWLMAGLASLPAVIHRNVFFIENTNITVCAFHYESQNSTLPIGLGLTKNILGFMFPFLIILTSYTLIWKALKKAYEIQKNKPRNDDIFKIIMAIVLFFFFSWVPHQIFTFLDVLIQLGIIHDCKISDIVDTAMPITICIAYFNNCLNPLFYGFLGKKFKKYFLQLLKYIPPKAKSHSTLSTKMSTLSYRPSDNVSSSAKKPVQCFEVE

[14] = Binding affinity to angiotensin AT1 receptor in rat lung membranes; format: cell membranes, Membrane
Rattus norvegicus [15] = assay: Cardiotoxicity in left renal artery-ligated hypertensive rat model assessed as reduction of heart rate at 0.3 to 3 mg/kg, administered intra-arterially for 6 days; format: toxicity, organism-based; parameters: dose 0.3-3 mg/kg; scale not given: the % may be the effect or the level left; details: in vivo, other, 144 h
Rattus norvegicus [16] = assay: Cardiotoxicity in left renal artery-ligated hypertensive rat model assessed as reduction of heart rate at 1 to 10 mg/kg, po for 6 days; format: toxicity, organism-based; parameters: dose 1-10 mg/kg, route oral; scale not given: the % may be the effect or the level left; details: in vivo, 144 h
[17] = target: T1, Type-1 angiotensin II receptor; assay: Displacement of [3H]-angiotensin 2 from angiotensin AT1 receptor
Rattus norvegicus [18] = assay: Antihypertensive activity in conscious normotensive rat after 24 hrs; format: functional
[19] = Binding affinity to angiotensin AT1 receptor in rat liver membranes; format: cell membranes, Membrane
[20] = target: T2, Type-1 angiotensin II receptor (Homo sapiens); assay: Ratio of compound IC50 to losartan IC50 for angiotensin AT1 receptor
[21] = target: T4, Type-1 angiotensin II receptor (Oryctolagus cuniculus, UniProt P34976); assay: Antagonist activity at angiotensin AT1 receptor in rabbit adrenal cortex assessed as inhibition of angiotensin 2-induced […] response; format: functional, tissue-based
T4 sequence (P34976 whole entry): T1 sequence (P30556 whole entry) with I2M, V49A, I254V, I270V, R272H, R311K, T349S, A353V

[22] = target: T4, Type-1 angiotensin II receptor; assay: Antagonist activity at angiotensin AT1 receptor in rabbit aortic strip assessed as inhibition of angiotensin 2-induced contractile response; format: functional; details: read-out: pA2 (converted)
Rattus norvegicus [23] = assay: Antihypertensive activity in conscious normotensive rat assessed as inhibition of angiotensin 2-induced pressor response at 1 mg/kg, iv after 6 hrs; format: functional
[24] = target: T5, Type-2 angiotensin II receptor (Homo sapiens, UniProt P50052); assay: (§2) Binding affinity to angiotensin AT2 receptor
T5 sequence (P50052 whole entry): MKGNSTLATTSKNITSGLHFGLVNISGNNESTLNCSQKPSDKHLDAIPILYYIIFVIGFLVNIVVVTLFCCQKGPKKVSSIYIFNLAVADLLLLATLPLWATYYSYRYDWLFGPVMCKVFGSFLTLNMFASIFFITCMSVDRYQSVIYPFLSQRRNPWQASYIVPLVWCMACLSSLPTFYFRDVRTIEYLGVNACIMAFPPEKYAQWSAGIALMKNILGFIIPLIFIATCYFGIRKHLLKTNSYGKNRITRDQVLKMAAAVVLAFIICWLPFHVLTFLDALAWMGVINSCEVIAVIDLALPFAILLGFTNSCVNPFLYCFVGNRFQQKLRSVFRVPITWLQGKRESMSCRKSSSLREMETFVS

[25] = target: T6, Type-2 angiotensin II receptor (Homo sapiens) (UniProt P50052); assay: as §2; details: concentration not given here
T6 sequence (whole entry): T5 sequence (P50052 whole entry)

Rattus norvegicus [26] = assay: Inhibition of angiotensin 2-induced response in intraduodenally dosed pithed normotensive rat; format: functional
[27] = target: T1, Type-1 angiotensin II receptor; assay: as §1; format: functional

Compound: CCCCc1nc(-c2ccccc2Cl)c(C(=O)O)n1Cc1ccc(-c2ccccc2-c2nn[nH]n2)cc1
Activity (Rattus norvegicus [1]): 88%

IC50 [2]: 0.37 nM
Compound: CCCCc1nc(Cl)c(C(=O)O)n1Cc1ccc(-c2ccccc2-c2nn[nH]n2)cc1 [CARBOXYLIC ACID METABOLITE]
ED30 (Rattus norvegicus [3]): 0.038 mg/kg

Ki [4]: 1.7 nM
bioavailability [5]: 44%
Compound: CCCCc1nn(-c2ccccc2C(F)(F)F)c(=O)n1Cc1ccc(-c2ccccc2S(=O)(=O)NC(=O)c2ccccc2)cc1 [L-159913]
inhibition in vivo at 10 mg/kg (Rhesus monkey): 76%

IC50 [6]: 12 nM
Ki [7]: 10 nM
Compound: CCCCN1CC2(CN1Cc1ccc(-c3ccccc3S(=O)(=O)NC(=O)c3ccccc3)cc1)C(=O)CCC2=O

Ratio Ki [10]: 10
Kb [11]: 0.45 nM
Compound: CCCCC1=NC(Cl)=C(C(=O)O)C(C)N1Cc1ccc(-c2ccccc2-c2nn[nH]n2)cc1 (centres undefined)
ED50 (Rattus norvegicus [8]): 0.08 µmol/kg
Ratio ED50 (Rattus norvegicus [9]): 20

IC50 [13]: 24 nM
Compound: CCc1cc(Oc2ccc(-c3ccccc3-c3nnn[nH]3)cc2)c2ncccc2n1
ED50 (Rattus norvegicus [12]): 0.86 mg/kg

Ki [14]: 3.7 nM
Compound: CCCc1nc2c(C)cc(-c3nc4ccccc4n3C)cc2n1Cc1ccc(-c2ccccc2C(=O)O)cc1

IC50 [13]: 370 nM
Compound: Cc1cc(Sc2ccc(-c3ccccc3-c3nn[nH]n3)cc2)c2ccccc2n1

Ki [17]: 2 nM
Compound: CCCCc1nc(Cl)c(C(=O)O)n1Cc1ccc2oc(-c3ccccc3-c3nn[nH]n3)c(Br)c2c1 [ZOLASARTAN]
Activity (Rattus norvegicus [15]): < 15%
Activity (Rattus norvegicus [16]): < 15%

Compound: CCCc1nn(Cc2ccccc2)c(C(=O)O)c1Cc1ccc(-c2ccccc2-c2nn[nH]n2)cc1
Activity (Rattus norvegicus [18]): 90%

IC50 [19]: 1.3 nM
Ratio IC50 [20]: 10
Compound: CCCCC1=NC2(CCCC2)C(=O)N1Cc1ccc(-c2ccccc2-c2nnn[nH]2)cc1 [IRBESARTAN]

IC50 [21]: 100 nM
Kb [22]: 12.6 nM
Compound: CCOC(=O)/C=C1\N(Cc2ccc(-c3ccccc3-c3nn[nH]n3)cc2)C(=O)CC1(CC)CC

Compound: CCCCc1nn(-c2ccccc2C(F)(F)F)c(=O)n1Cc1ccc(-c2ccccc2-c2nn[nH]n2)cc1
inhibition in vivo at 1 mg/kg (Rattus norvegicus [23]): 70%

IC50 [24]: 2.3 nM
inhibition [25]: 90%
Compound: CCc1nc2c(C)cc(C)nc2n1Cc1ccc(-c2ccsc2-c2nn[nH]n2)cc1

IC50 [27]: 1.8 nM
Compound: CC1CC(=O)NN=C1c1ccc2nc(C3CC3)n(Cc3ccc(-c4ccccc4-c4nn[nH]n4)cc3)c2c1 (centres undefined)
inhibition (INH) (Rattus norvegicus [26]): 80%
